Experimental data as given in ChEMBL document CHEMBL4359904, “Structural tuning of acridones for developing anticancer agents targeting dihydrofolate reductase” (Bioorg Med Chem Lett, 2019).
Active and inactive are the calls of the source. The rule behind the calls is not given here.

How the values were obtained:
[1] = system: C6; test: Antiproliferative activity against rat C6 cells assessed as decrease in cell viability measured after 48 hrs by MTT assay; format: functional, cell-based; details: for IC50: C6, 48 h
[2] = biological target: T1, Dihydrofolate reductase (Homo sapiens, UniProt P00374); test: Inhibition of human dihydrofolate reductase using dihydrofolic acid as substrate preincubated for 1 hr in presence of NADPH followed by substrate addition by enzyme immunoassay
T1 sequence (P00374 whole entry): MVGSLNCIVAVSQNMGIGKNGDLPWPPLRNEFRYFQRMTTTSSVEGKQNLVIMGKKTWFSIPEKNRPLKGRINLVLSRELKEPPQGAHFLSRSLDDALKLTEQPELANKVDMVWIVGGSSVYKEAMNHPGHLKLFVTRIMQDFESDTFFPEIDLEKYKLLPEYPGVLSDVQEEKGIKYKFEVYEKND

[3] = system: C6; test: Induction of morphological changes in rat C6 cells assessed as cellular senescence by measuring cell rounding with distorted morphology after 24 hrs by inverted microscopy analysis; format: functional, cell-based
[4] = system: C6; test: Cell cycle arrest in rat C6 cells assessed as cell population at G0/G1 phase measured after 24 hrs by propidium iodide staining based flow cytometry analysis; format: functional
[5] = system: C6; test: Cell cycle arrest in rat C6 cells assessed as increase in cell population at sub G0 phase measured after 24 hrs by propidium iodide staining based flow cytometry analysis; format: functional
[6] = system: C6; test: Cell cycle arrest in rat C6 cells assessed as decrease in cell population at S phase measured after 24 hrs by propidium iodide staining based flow cytometry analysis; format: functional
[7] = system: C6; test: Cell cycle arrest in rat C6 cells assessed as decrease in cell population at G2/M phase measured after 24 hrs by propidium iodide staining based flow cytometry analysis; format: functional
[8] = system: UO-31; test: Growth inhibition of human UO31 cells at 10^-5 M incubated for 48 hrs by sulforhodamine B assay relative to control; format: functional; details: UO-31, 48 h, read-out: GI
[9] = system: MCF7; test: Growth inhibition of human MCF7 cells at 10^-5 M incubated for 48 hrs by sulforhodamine B assay relative to control; format: functional; details: MCF7, 48 h, read-out: GI
[10] = system: C6; test: Induction of morphological changes in rat C6 cells assessed as increase in total length of processes measured after 24 hrs by inverted microscopy analysis relative to control; format: functional

SMILES: C[C@H](NC(=O)CNC(=O)c1cccc2c(=O)c3ccccc3[nH]c12)C(=O)O
- inhibition [1]: Dose-dependent effect
- IC50 [1]: 250 to 1500 nM
- IC50 [2]: 670 nM
- Activity [3]: Active
- Activity [4]: inactive

SMILES: COc1cccc2c1C(=O)c1c(O)c3c(c(O)c1C2=O)C[C@@](O)(C(=O)CO)C[C@@H]3O[C@H]1C[C@H](N)[C@@H](O)[C@H](C)O1
- Activity [5]: Active
- inhibition [6]: Active
- inhibition [7]: Active

SMILES: CC1=NN(c2cccc(Cl)c2)C(=O)/C1=C\c1cn(CC(O)Cn2c3ccccc3c(=O)c3ccccc32)c2ccccc12 (racemic)
- IC50 [2]: 1800 nM

SMILES: O=C1Nc2ccccc2/C1=C/c1cn(CC(O)Cn2c3ccccc3c(=O)c3ccccc32)c2ccccc12 (racemic)
- inhibition of growth at 10 µM [8]: 70%
- inhibition of growth at 10 µM [9]: 55%
- inhibition [1]: Dose-dependent effect
- IC50 [1]: 250 to 1500 nM
- Activity [10]: 16 - 18%
- inhibition [7]: Active
- IC50 [2]: 100 nM
- Activity [3]: Active
- Activity [4]: inactive

SMILES: CN1C(=O)C(=Cc2cn(CC(O)Cn3c4ccccc4c(=O)c4ccccc43)c3ccccc23)C(=O)N(C)C1=O (racemic)
- IC50 [2]: 210 nM
